Data from the supplement of paper PMC10331698.
± gives the standard deviation of the averaged measurements.

Legend:
Test in all cases: level (log10 ratio to DMSO vehicle control); higher = higher biomarker level / cell amount than vehicle control
Conditions in all cases: in DMSO
[1] = compound: C=C(C)C(=O)OCCC(F)(F)C(F)(F)C(F)(F)C(F)(F)C(F)(C(F)(F)F)C(F)(F)F [(Perfluoro-5-methylhexyl)ethyl 2-methylprop-2-enoate]
Experimental: (§1)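 BioMAP Diversity Plus panel of 12 human primary cell co-culture systems (3C, 4H, LPS, SAg, BT, BF4T, BE3C, CASM3C, HDF3CGF, KF3CT, MyoF, Mphg). Compounds were added 1 h before stimulation and left for 24 h (MyoF 48 h; BT 72 h for soluble read-outs or 6 d for IgG). Biomarkers were read by ELISA, cytotoxicity by SRB, PBMC viability and proliferation by Alamar Blue. Each well value was divided by the mean of 8 DMSO control wells on the same plate and log10 transformed; duplicate blinded samples were tested at 4 concentrations.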

[2] = compound: NC(=O)C(F)(F)C(F)(F)F [Pentafluoropropionamide]
Experimental: as §1

[3] = compound: O=C(O)C(F)(F)C(F)(F)F [Perfluoropropanoic acid]
Experimental: as §1

[4] = compound: FC(F)(F)C(F)(F)C(F)(F)C(F)(F)C(F)(F)CCI [1-Iodo-1H,1H,2H,2H-perfluoroheptane]
Experimental: as §1

[5] = compound: FC(F)C(F)(F)COCC1CO1 [((2,2,3,3-Tetrafluoropropoxy)methyl)oxirane]
Experimental: as §1

[6] = compound: C=CC(F)(F)C(F)(F)C(F)(F)C(F)(F)C(F)(F)C(F)(F)C(F)(F)C(F)(F)C=C [1,8-Divinylperfluorooctane]
Experimental: as §1

Test System	level (log10) ([1]; 6700 nM)	level (log10) ([1]; 20000 nM)	level (log10) ([2]; 6700 nM)	level (log10) ([2]; 20000 nM)	level (log10) ([2]; 60000 nM)	level (log10) ([3]; 6700 nM)	level (log10) ([3]; 20000 nM)	level (log10) ([3]; 60000 nM)	level (log10) ([4]; 6700 nM)	level (log10) ([4]; 20000 nM)	level (log10) ([4]; 60000 nM)	level (log10) ([5]; 6700 nM)	level (log10) ([5]; 20000 nM)	level (log10) ([5]; 60000 nM)	level (log10) ([6]; 6700 nM)	level (log10) ([6]; 20000 nM)
SAg:CXCL8/IL-8	0.0115 ± 0.012	0.0405 ± 0.079	-0.0245 ± 0.025	-0.0255 ± 0.036	0.0075 ± 0.04	-0.022 ± 0.0057	0.0065 ± 0.019	0.0415 ± 0.0078	-0.0585 ± 0.042	-0.061 ± 0.016	0.007 ± 0.042	-0.004 ± 0.011	-0.0335 ± 0.011	0.02 ± 0.018	-0.0315 ± 0.013	0.006 ± 0.05
4H:CCL26/Eotaxin-3	0.042 ± 0.058	0.039 ± 0.02	-0.001 ± 0.013	-0.0015 ± 0.013	0.0065 ± 0.026	-0.0115 ± 0.0092	-0.0045 ± 0.012	-0.015 ± 0.017	0.007 ± 0.017	0 ± 0.014	-0.009	0.0035 ± 0.0078	0 ± 0.041	0.014 ± 0.05	0.013 ± 0.0085	0.0345 ± 0.013
BF4T:CCL26/Eotaxin-3	-0.0125 ± 0.0064	0.016 ± 0.044	-0.009 ± 0.017	-0.0155 ± 0.023	-0.0135 ± 0.011	-0.004 ± 0.031	-0.0105 ± 0.04	0.03 ± 0.044	-0.0135 ± 0.012	-0.0315 ± 0.0092	-0.17 ± 0.021	0.005 ± 0.033	0.0055 ± 0.052	0.031 ± 0.05	-0.0405 ± 0.019	-0.0355 ± 0.013
BT:B cell Proliferation	-0.027 ± 0.011	0.001 ± 0.017	0.005 ± 0.057	-0.0215 ± 0.019	0.0205 ± 0.019	0.0125 ± 0.044	-0.041 ± 0.0085	-0.002 ± 0.051	-0.0065 ± 0.049	0.0095 ± 0.015	-0.0815 ± 0.023	-0.021 ± 0.02	-0.014 ± 0.0042	0.0105 ± 0.0092	0.0035 ± 0.037	0.035 ± 0.0085
4H:VEGFR2	-0.0185 ± 0.037	-0.0115 ± 0.033	0.032 ± 0.014	0.034 ± 0.027	0.072 ± 0.031	-0.0375 ± 0.026	-0.011 ± 0.04	0.049 ± 0.042	0.002 ± 0.047	-0.004 ± 0.017	0.0155 ± 0.0021	0.0095 ± 0.04	0.0065 ± 0.033	-0.0085 ± 0.026	-0.0065 ± 0.056	0.053 ± 0.0085
BE3C:HLA-DR	-0.0115 ± 0.0078	-0.0045 ± 0.0078	-0.0115 ± 0.0078	0.0045 ± 0.0064	0.0055 ± 0.026	-0.026 ± 0.0085	-0.012 ± 0.024	0.016 ± 0.016	-0.0055 ± 0.0035	-0.0105 ± 0.0035	-0.0215 ± 0.0078	0.001 ± 0.0099	-0.0055 ± 0.0035	-0.07 ± 0.14	0.021 ± 0.016	0.014
4H:CCL2/MCP-1	-0.0135 ± 0.011	0.002 ± 0.0042	-0.028 ± 0.0042	-0.0445 ± 0.03	0 ± 0.075	-0.0455 ± 0.022	-0.0145 ± 0.039	0.0285 ± 0.039	0.005	-0.0045 ± 0.029	0.0325 ± 0.035	0.021 ± 0.023	-0.0005 ± 0.042	0.0235 ± 0.066	-0.0315 ± 0.005	0.013 ± 0.035
BF4T:tPA	-0.002 ± 0.0057	-0.037 ± 0.031	-0.013 ± 0.0028	-0.014 ± 0.0042	0 ± 0.02	-0.006 ± 0.024	0.025 ± 0.047	0.037 ± 0.04	-0.0055 ± 0.012	-0.003 ± 0.011	0.0065 ± 0.012	-0.009 ± 0.018	-0.001 ± 0.033	0.016 ± 0.064	-0.0015 ± 0.018	0.0125 ± 0.015
4H:CD62P/P-selectin	-0.017 ± 0.03	-0.02 ± 0.028	-0.023 ± 0.054	-0.0265 ± 0.0078	-0.0475 ± 0.03	-0.0215 ± 0.0021	-0.012 ± 0.0042	0.0105 ± 0.026	0.028 ± 0.075	0.049 ± 0.033	-0.0635 ± 0.044	0.0275 ± 0.043	-0.0285 ± 0.087	-0.051 ± 0.071	-0.009 ± 0.018	-0.035 ± 0.064
BE3C:EGFR	-0.0065 ± 0.011	0.009 ± 0.014	-0.019 ± 0.016	-0.0095 ± 0.015	-0.0235 ± 0.04	-0.0175 ± 0.036	0.0065 ± 0.012	0.035 ± 0.035	0.0195 ± 0.0078	0.0085 ± 0.019	0.009 ± 0.028	0.002 ± 0.0071	-0.021 ± 0.021	-0.0145 ± 0.012	-0.0015 ± 0.022	-0.006
BF4T:SRB	-0.016 ± 0.011	-0.007 ± 0.025	-0.0035 ± 0.00071	-0.007 ± 0.0071	-0.004 ± 0.0042	-0.002 ± 0.0028	-0.0025 ± 0.0064	-0.0055 ± 0.0064	-0.003 ± 0.0014	-0.0035 ± 0.00071	0.006 ± 0.016	-0.0075 ± 0.0035	-0.006 ± 0.0057	0.002 ± 0.017	-0.0045 ± 0.0021	-0.0025 ± 0.00071
BT:sIL-2	-0.0185 ± 0.025	-0.0245 ± 0.039	0.0375 ± 0.0092	0.002 ± 0.03	0.038 ± 0.017	0.046 ± 0.016	-0.0205 ± 0.064	-0.007 ± 0.1	-0.068 ± 0.0042	0.027 ± 0.047	-0.15 ± 0.073	0.084 ± 0.067	-0.005 ± 0.067	0.017 ± 0.13	0.014 ± 0.035	0.022 ± 0.05
BF4T:PAI-I	-0.01 ± 0.018	-0.023 ± 0.0057	-0.0005 ± 0.0035	-0.005 ± 0.016	0.0015 ± 0.011	-0.004 ± 0.023	0.01 ± 0.013	0.029 ± 0.044	0.012 ± 0.014	0.005 ± 0.0014	0.0135 ± 0.016	-0.0075 ± 0.00071	-0.011 ± 0.0028	0.0105 ± 0.026	-0.01 ± 0.0057	0.0055 ± 0.0064
SAg:CD62E/E-Selectin	0.0215 ± 0.011	0.007 ± 0.014	-0.0215 ± 0.005	-0.0095 ± 0.026	-0.0115 ± 0.018	0.004 ± 0.013	-0.0205 ± 0.016	0.0425 ± 0.023	0.023 ± 0.062	-0.0295 ± 0.0078	0.017 ± 0.0085	0.0075 ± 0.018	-0.002 ± 0.023	0.009 ± 0.047	-0.0205 ± 0.012	-0.0195 ± 0.005
LPS:CD106/VCAM-1	0.0045 ± 0.016	-0.003 ± 0.035	-0.041 ± 0.0014	-0.021 ± 0.0099	-0.0135 ± 0.018	-0.0105 ± 0.018	-0.008 ± 0.02	-0.0055 ± 0.022	-0.0045 ± 0.00071	-0.008 ± 0.0014	-0.0165 ± 0.0064	0.0015 ± 0.036	-0.024 ± 0.0071	-0.032 ± 0.042	-0.0145 ± 0.0092	-0.033 ± 0.0014
BE3C:CXCL8/IL-8	-0.0065 ± 0.0092	-0.008 ± 0.024	0.016 ± 0.028	0.0125 ± 0.074	0.0445 ± 0.044	-0.0355 ± 0.083	0.001 ± 0.083	0.0605 ± 0.13	0.0285 ± 0.037	0.0605 ± 0.023	0.086 ± 0.024	0.0015 ± 0.00071	-0.005 ± 0.025	-0.009 ± 0.021	0.0025 ± 0.021	0.01 ± 0.02
BF4T:CXCL8/IL-8	0.067 ± 0.037	0.035 ± 0.027	0.019 ± 0.028	0.0175 ± 0.022	0.02 ± 0.02	0.043 ± 0.037	0.033 ± 0.035	0.046 ± 0.052	0.0065 ± 0.016	0.0295 ± 0.018	0.0605 ± 0.011	0.0165 ± 0.013	0.003 ± 0.0042	0.0255 ± 0.021	0.009 ± 0.03	0.0155 ± 0.013
LPS:M-CSF	0.022 ± 0.02	0.006 ± 0.0042	-0.0285 ± 0.039	-0.0055 ± 0.0064	0.023 ± 0.0042	0.006 ± 0.0028	-0.027 ± 0.0014	-0.0005 ± 0.037	-0.0145 ± 0.0092	-0.0185 ± 0.0035	-0.031 ± 0.017	0.0075 ± 0.011	0.009 ± 0.017	-0.0155 ± 0.036	-0.029	-0.007 ± 0.031
